These results are taken from article PMC11257449 (bioRxiv, 2024).

In the experiment the target is AmpC β-lactamase (Escherichia coli, UniProt P00811). It counts as biochemical. Conditions: for Km: AmpC substrate.
Sequence of AmpC β-lactamase (P00811 20-377): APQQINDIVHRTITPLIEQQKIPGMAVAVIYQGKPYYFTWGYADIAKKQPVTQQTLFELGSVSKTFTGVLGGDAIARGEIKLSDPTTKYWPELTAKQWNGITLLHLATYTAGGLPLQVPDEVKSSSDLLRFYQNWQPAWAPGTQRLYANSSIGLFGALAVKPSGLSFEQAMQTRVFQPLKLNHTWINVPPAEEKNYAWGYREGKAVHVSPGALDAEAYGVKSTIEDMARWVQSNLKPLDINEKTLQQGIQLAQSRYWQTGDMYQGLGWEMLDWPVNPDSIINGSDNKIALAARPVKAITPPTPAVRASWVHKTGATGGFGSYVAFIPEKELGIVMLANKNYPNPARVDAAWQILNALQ

`O=C(Cc1cccs1)N[C@@H]1C(=O)N2C(C(=O)O)=C(CSc3ccc([N+](=O)[O-])c(C(=O)O)c3)CS[C@H]12` [CENTA]: the Km was determined as 27.6 µM.

Turning to `O=S(=O)(Nc1ccc(F)c2cnccc12)c1cc(Cl)cc(Cl)c1O` [Z6615020275], the Ki (Fig. 1 legend, crystallised inhibitors) is 2000 nM.

For `O=C(Cc1cccs1)N[C@@H]1C(=O)N2C(C(=O)O)=C(/C=C/c3ccc([N+](=O)[O-])cc3[N+](=O)[O-])CS[C@H]12` [nitrocefin], the Km was 180 µM.
